Laboratory results: ChEMBL document CHEMBL1201862, “PubChem BioAssay data set” (2004)
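Values below derive from 48-hour exposures of cells grown in 96-well plates, with endpoints linearly interpolated between the two concentrations bracketing the appropriate inhibition level. GI50 = concentration required for 50% inhibition of growth.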 Calls of active or inactive are those of the source. Rule as the data show it: active = GI50 up to about 1.1 µM and inactive = higher.

Legend:
Assay in all cases: inhibition of tumour cell growth, NCI panel, 48 h
BT-549 = test system: BT-549
T47D = test system: T47D
DMS-114 = test system: DMS-114
DMS-273 = test system: DMS-273
HOP-18 = test system: HOP-18
XF498 = test system: XF498
KM-20L2 = test system: KM-20L2
M19-MEL = test system: M19-MEL

**Q.** How did the GI50 (BT-549) turn out when `COc1ccc2c(c1)/C(=C\c1c(Cl)[nH]c3ccccc13)C(=O)N2` was run?
**A.** Its GI50 is 3.3 µM (inactive).

**Q.** And the GI50 (T47D)?
**A.** The GI50 was 26.1 µM (inactive).

**Q.** With `O=C(CC(=O)N1N=C(N2CCCCC2)CC1c1ccccc1)Nc1ccc(Cl)cc1` (centres undefined) as the compound, how does the GI50 (BT-549) read?
**A.** The GI50 was > 100 µM (inactive).

**Q.** And the GI50 (T47D)?
**A.** Its GI50 is > 100 µM (inactive).

**Q.** How did the GI50 (T47D) turn out when `CC[N+](CC)(CC)/C(=N\S(=O)(=O)c1ccc(Cl)cc1)[N-]S(=O)(=O)c1cc(C)c(Cl)cc1S` was run?
**A.** Its GI50 is > 100 µM (inactive).

**Q.** What does the source list for `O=C1Oc2ccccc2N/C1=C/C(=O)c1ccc([N+](=O)[O-])cc1`?
**A.** GI50 (BT-549): 98.2 µM (inactive); GI50 (T47D): > 100 µM (inactive)

**Q.** What does the source list for `CCCn1cc2c(SC)nc(SC)nc2n1`?
**A.** GI50 (DMS-114): > 100 µM (inactive); GI50 (DMS-273): > 100 µM (inactive); GI50 (HOP-18): > 100 µM (inactive); GI50 (XF498): > 100 µM (inactive)

**Q.** `C=CCCCC1CCCNC1=S` (centres undefined) was tested. Which GI50 (BT-549) did it give?
**A.** The GI50 was > 100 µM (inactive).

**Q.** And the GI50 (T47D)?
**A.** The GI50 was > 100 µM (inactive).

**Q.** How did the GI50 (T47D) turn out when `O=C(O)c1cc2cc(OCc3ccccc3)ccc2[nH]1` was run?
**A.** Its GI50 is > 100 µM (inactive).

**Q.** Which GI50 (BT-549) does the source give for `Cc1ccc2nc(-c3ccc(C(C)(C)C)cc3)oc(=O)c2c1` here?
**A.** Its GI50 is 24.4 µM (inactive).

**Q.** What about the GI50 (T47D) of the same compound?
**A.** The GI50 was 21.4 µM (inactive).

**Q.** What does the source list for `CN(C)C(=O)/C=C/c1c[nH]c(=O)[nH]c1=O`?
**A.** GI50 (DMS-114): > 500 µM (inactive); GI50 (DMS-273): > 500 µM (inactive); GI50 (HOP-18): > 500 µM (inactive); GI50 (KM-20L2): > 500 µM (inactive)

**Q.** With `Cc1occc1/C(S)=N\c1ccc(Cl)c(COC(C)(C)C)c1` as the compound, how does the GI50 (BT-549) read?
**A.** The GI50 was 17.6 µM (inactive).

**Q.** And the GI50 (T47D)?
**A.** Its GI50 is 12.1 µM (inactive).

**Q.** `C=C(C)C(=O)OC1C(C(C)CCCO)=C(CO)CC2OC(=O)C(=C)C21` (centres undefined) was tested. Which GI50 (BT-549) did it give?
**A.** The GI50 was 14 µM (inactive).

**Q.** And the GI50 (T47D)?
**A.** Its GI50 is 17.4 µM (inactive).

**Q.** `O=C(Nc1ccc2c(c1)oc(=O)c1ccccc12)C(Cl)Cl` was tested. Which GI50 (BT-549) did it give?
**A.** The GI50 was > 100 µM (inactive).

**Q.** What about the GI50 (T47D) of the same compound?
**A.** Its GI50 is > 100 µM (inactive).

**Q.** With `COc1cc([C@@]23OC[C@@H]4[C@@H](OC[C@@H]42)c2cc4c(cc23)OCO4)cc(OC)c1OC` as the compound, how does the GI50 (BT-549) read?
**A.** Its GI50 is < 0.0304 µM (active).

**Q.** What about the GI50 (T47D) of the same compound?
**A.** The GI50 was 50.8 µM (inactive).

**Q.** How did the GI50 (BT-549) turn out when `C=C1[C@@](C)([C@@H]2CCCS2)[C@H]2C(C)=C[C@]1(C)n1c(=O)n(-c3ccccc3)c(=O)n12` was run?
**A.** The GI50 was > 100 µM (inactive).

**Q.** And the GI50 (T47D)?
**A.** Its GI50 is > 100 µM (inactive).

**Q.** How did the GI50 (DMS-114) turn out when `COc1cccc(-c2nccc3c(OCc4ccccc4)c(OC)c(OC)cc23)c1` was run?
**A.** The GI50 was 35.6 µM (inactive).

**Q.** What about the GI50 (DMS-273) of the same compound?
**A.** Its GI50 is 27.2 µM (inactive).

**Q.** What about the GI50 (KM-20L2) of the same compound?
**A.** The GI50 was > 100 µM (inactive).

**Q.** And the GI50 (M19-MEL)?
**A.** Its GI50 is > 100 µM (inactive).

**Q.** And the GI50 (XF498)?
**A.** Its GI50 is > 100 µM (inactive).

**Q.** Which GI50 (BT-549) does the source give for `COc1ccccc1N1CCN(CCCN2C(C(=O)c3ccccc3)=C(O)c3c(C)cc(C)nc3S2(=O)=O)CC1` here?
**A.** Its GI50 is > 100 µM (inactive).

**Q.** And the GI50 (T47D)?
**A.** Its GI50 is > 100 µM (inactive).

**Q.** For `CC(=O)NNc1nc(C)c(C(=O)NNC(=O)C(=O)Nc2ccc(Cl)cc2)s1`, which GI50 (KM-20L2) is on record?
**A.** The GI50 was > 100 µM (inactive).

**Q.** What about the GI50 (M19-MEL) of the same compound?
**A.** The GI50 was > 100 µM (inactive).

**Q.** And the GI50 (XF498)?
**A.** The GI50 was > 100 µM (inactive).

**Q.** With `COc1cccc(-c2cc(O)c3cccnc3n2)c1` as the compound, how does the GI50 (BT-549) read?
**A.** Its GI50 is > 100 µM (inactive).

**Q.** And the GI50 (T47D)?
**A.** Its GI50 is > 100 µM (inactive).

**Q.** What does the source list for `CN(C)CC(CC1=C(CC(CN(C)C)N(C)C)CCC1)N(C)C` (centres undefined)?
**A.** GI50 (DMS-114): > 100 µM (inactive); GI50 (DMS-273): > 100 µM (inactive); GI50 (HOP-18): > 100 µM (inactive); GI50 (KM-20L2): > 100 µM (inactive); GI50 (M19-MEL): > 100 µM (inactive); GI50 (XF498): > 100 µM (inactive)

**Q.** With `CCOC(=O)C(C)(C)C(O)C(C)C` (centres undefined) as the compound, how does the GI50 (BT-549) read?
**A.** Its GI50 is > 100 µM (inactive).

**Q.** What about the GI50 (T47D) of the same compound?
**A.** The GI50 was > 100 µM (inactive).

**Q.** `Cc1nc(N)nn1C1OCC(O)C(O)C1O` (centres undefined) was tested. Which GI50 (DMS-114) did it give?
**A.** Its GI50 is > 100 µM (inactive).

**Q.** And the GI50 (DMS-273)?
**A.** The GI50 was > 100 µM (inactive).

**Q.** What about the GI50 (KM-20L2) of the same compound?
**A.** The GI50 was > 100 µM (inactive).

**Q.** What about the GI50 (XF498) of the same compound?
**A.** Its GI50 is > 100 µM (inactive).

**Q.** `CN(CCCNC(=O)c1nn(-c2ccccc2)c2c1ccc1ccccc12)CCCNC(=O)c1nn(-c2ccccc2)c2c1ccc1ccccc12` was tested. Which GI50 (BT-549) did it give?
**A.** The GI50 was 1.68 µM (inactive).

**Q.** What about the GI50 (T47D) of the same compound?
**A.** The GI50 was 1.82 µM (inactive).

**Q.** How did the GI50 (BT-549) turn out when `CCOc1ccc2nc(-c3ccc(O)cc3)sc2c1` was run?
**A.** Its GI50 is 31.1 µM (inactive).

**Q.** Which results are given for `CN(C)/C(=N\C#N)N(Cc1ccccc1)Cc1ccccc1`?
**A.** GI50 (DMS-273): > 100 µM (inactive); GI50 (HOP-18): > 100 µM (inactive); GI50 (KM-20L2): > 100 µM (inactive); GI50 (M19-MEL): > 100 µM (inactive)

**Q.** What does the source list for `C[N+](C)(C)CC1CCc2ccccc2C1=O` (centres undefined)?
**A.** GI50 (BT-549): 15.5 µM (inactive); GI50 (DMS-114): 13.5 µM (inactive); GI50 (DMS-273): 2.16 µM (inactive); GI50 (KM-20L2): 19.6 µM (inactive); GI50 (M19-MEL): 16 µM (inactive); GI50 (T47D): 6.53 µM (inactive); GI50 (XF498): 2.39 µM (inactive)

**Q.** Which GI50 (BT-549) does the source give for `Cc1cc(O)c(C(C)C)cc1C(=S)Nc1ccc(Cl)cc1` here?
**A.** Its GI50 is 16.5 µM (inactive).

**Q.** And the GI50 (T47D)?
**A.** Its GI50 is 11.6 µM (inactive).

**Q.** Which GI50 (BT-549) does the source give for `c1ccc(Nc2nnc(-c3ccccc3Nc3ccccc3-c3nnc(Nc4ccccc4)s3)s2)cc1` here?
**A.** The GI50 was > 100 µM (inactive).

**Q.** For `CO/C=C(/C(=O)OC)c1ccccc1[C@H]1C[C@@H]1c1ccc(OC)cc1`, which GI50 (BT-549) is on record?
**A.** Its GI50 is 17.7 µM (inactive).

**Q.** What about the GI50 (T47D) of the same compound?
**A.** The GI50 was 21.1 µM (inactive).

**Q.** How did the GI50 (T47D) turn out when `CC1(C)[C@@H](Cn2nnc3c(N)ncnc32)CC[C@@]1(C)CO` was run?
**A.** Its GI50 is > 100 µM (inactive).

**Q.** What does the source list for `CCCCCCCC/C=C\CCCCCCCC(=O)O` [OLEIC ACID]?
**A.** GI50 (DMS-114): 97.7 µM (inactive); GI50 (DMS-273): 110 µM (inactive); GI50 (HOP-18): > 500 µM (inactive); GI50 (KM-20L2): > 500 µM (inactive); GI50 (M19-MEL): 101 µM (inactive); GI50 (XF498): 8.91 µM (inactive)

**Q.** With `S=C1N(c2ccc(Cl)cc2)C2=C(/N=N/c3ccccc3)C(=Nc3ccccc3S2)N1c1ccccn1` as the compound, how does the GI50 (BT-549) read?
**A.** Its GI50 is 11.1 µM (inactive).

**Q.** And the GI50 (T47D)?
**A.** The GI50 was 0.075 µM (active).

**Q.** With `CCOC(=O)c1cc(NC(=O)c2ccccc2)c(=O)n2c(cc3c(Cl)cccc32)c1O` as the compound, how does the GI50 (BT-549) read?
**A.** The GI50 was > 100 µM (inactive).

**Q.** What does the source list for `Nc1ccc(/N=N/c2ccc(/C=C/c3ccc(/N=N/c4ccc(N)c5ccc(S(=O)(=O)O)cc45)cc3S(=O)(=O)O)c(S(=O)(=O)O)c2)c2cc(S(=O)(=O)O)ccc12`?
**A.** GI50 (DMS-114): > 100 µM (inactive); GI50 (DMS-273): > 88.1 µM (inactive); GI50 (HOP-18): > 100 µM (inactive); GI50 (KM-20L2): > 100 µM (inactive); GI50 (M19-MEL): > 100 µM (inactive); GI50 (XF498): > 62.2 µM (inactive)
